In the NIST ThermoML archive (doi:10.1016/j.jct.2007.07.005):
± gives the expanded uncertainty stated by the source.

Assay: xn = mol fraction of the nth substance listed
Conditions: Fluid (supercritical or subcritical phases), vibrating tube

CCCCCO [pentan-1-ol] + O=C=O
Conditions	mass density [kg/m3]
362.59 K, 3010 kPa, x2 = 0	762.29 ± 0.43
362.59 K, 3998 kPa, x2 = 0	763.28 ± 0.43
362.59 K, 5006 kPa, x2 = 0	764.25 ± 0.43
362.59 K, 6013 kPa, x2 = 0	765.23 ± 0.43
362.59 K, 7014 kPa, x2 = 0	766.21 ± 0.44
362.59 K, 8007 kPa, x2 = 0	767.16 ± 0.44
362.59 K, 9020 kPa, x2 = 0	768.1 ± 0.44
362.59 K, 10006 kPa, x2 = 0	769.02 ± 0.44
362.59 K, 10991 kPa, x2 = 0	769.93 ± 0.44
362.59 K, 12025 kPa, x2 = 0	770.87 ± 0.44
362.59 K, 13008 kPa, x2 = 0	771.76 ± 0.44
362.59 K, 13998 kPa, x2 = 0	772.62 ± 0.44
362.59 K, 15017 kPa, x2 = 0	773.51 ± 0.44
362.59 K, 16000 kPa, x2 = 0	774.37 ± 0.44
362.59 K, 17013 kPa, x2 = 0	775.24 ± 0.44
362.59 K, 18032 kPa, x2 = 0	776.11 ± 0.44
362.59 K, 19003 kPa, x2 = 0	776.9 ± 0.44
362.59 K, 20030 kPa, x2 = 0	777.77 ± 0.45
362.59 K, 20987 kPa, x2 = 0	778.55 ± 0.45
362.59 K, 22033 kPa, x2 = 0	779.4 ± 0.45
362.59 K, 23000 kPa, x2 = 0	780.2 ± 0.45
362.59 K, 24031 kPa, x2 = 0	781.02 ± 0.45
362.59 K, 25026 kPa, x2 = 0	781.82 ± 0.45
362.64 K, 10025 kPa, x2 = 0.3624	777.81 ± 0.44
362.64 K, 11003 kPa, x2 = 0.3624	779.19 ± 0.44
362.64 K, 12003 kPa, x2 = 0.3624	780.55 ± 0.44
362.64 K, 12022 kPa, x2 = 0.4651	773.96 ± 0.44
362.64 K, 13017 kPa, x2 = 0.3624	781.9 ± 0.44
362.64 K, 13060 kPa, x2 = 0.4651	776.14 ± 0.44
362.64 K, 14013 kPa, x2 = 0.3624	783.21 ± 0.44
362.64 K, 14031 kPa, x2 = 0.4651	778.14 ± 0.44
362.64 K, 15047 kPa, x2 = 0.4651	780.2 ± 0.44
362.64 K, 15050 kPa, x2 = 0.3624	784.56 ± 0.44
362.64 K, 16009 kPa, x2 = 0.3624	785.79 ± 0.44
362.64 K, 16038 kPa, x2 = 0.4651	782.15 ± 0.44
362.64 K, 17020 kPa, x2 = 0.4651	784.05 ± 0.45
362.64 K, 17038 kPa, x2 = 0.3624	787.08 ± 0.44
362.64 K, 17996 kPa, x2 = 0.3624	788.26 ± 0.45
362.64 K, 18020 kPa, x2 = 0.4651	785.95 ± 0.45
362.64 K, 19025 kPa, x2 = 0.3624	789.49 ± 0.45
362.64 K, 19043 kPa, x2 = 0.4651	787.85 ± 0.45
362.64 K, 20005 kPa, x2 = 0.3624	790.66 ± 0.45
362.64 K, 20038 kPa, x2 = 0.4651	789.76 ± 0.45
362.64 K, 21006 kPa, x2 = 0.3624	791.85 ± 0.45
362.64 K, 21016 kPa, x2 = 0.4651	791.43 ± 0.45
362.64 K, 22040 kPa, x2 = 0.3624	793.05 ± 0.45
362.64 K, 22046 kPa, x2 = 0.4651	793.2 ± 0.45
362.64 K, 22994 kPa, x2 = 0.3624	794.14 ± 0.45
362.64 K, 23026 kPa, x2 = 0.4651	794.9 ± 0.45
362.64 K, 24043 kPa, x2 = 0.3624	795.34 ± 0.45
362.64 K, 24056 kPa, x2 = 0.4651	796.64 ± 0.45
362.64 K, 25004 kPa, x2 = 0.3624	796.42 ± 0.45
362.66 K, 3020 kPa, x2 = 0.0816	763.81 ± 0.43
362.66 K, 3996 kPa, x2 = 0.0816	764.91 ± 0.43
362.66 K, 4993 kPa, x2 = 0.0816	765.97 ± 0.43
362.66 K, 6014 kPa, x2 = 0.0816	767.08 ± 0.43
362.66 K, 7003 kPa, x2 = 0.0816	768.13 ± 0.44
362.66 K, 8000 kPa, x2 = 0.0816	769.18 ± 0.44
362.66 K, 9015 kPa, x2 = 0.0816	770.22 ± 0.44
362.66 K, 10003 kPa, x2 = 0.0816	771.21 ± 0.44
362.66 K, 11015 kPa, x2 = 0.0816	772.24 ± 0.44
362.66 K, 12001 kPa, x2 = 0.0816	773.21 ± 0.44
362.66 K, 13063 kPa, x2 = 0.0816	774.24 ± 0.44
362.66 K, 14005 kPa, x2 = 0.0816	775.13 ± 0.44
362.66 K, 15014 kPa, x2 = 0.0816	776.09 ± 0.44
362.66 K, 16024 kPa, x2 = 0.9216	573.29 ± 0.76
362.66 K, 16035 kPa, x2 = 0.0816	777.05 ± 0.44
362.66 K, 17029 kPa, x2 = 0.0816	777.98 ± 0.44
362.66 K, 17029 kPa, x2 = 0.9216	602.35 ± 0.71
362.66 K, 18005 kPa, x2 = 0.0816	778.87 ± 0.44
362.66 K, 18035 kPa, x2 = 0.9216	625.49 ± 0.65
362.66 K, 19005 kPa, x2 = 0.9216	644.28 ± 0.61
362.66 K, 19061 kPa, x2 = 0.0816	779.82 ± 0.45
362.66 K, 19993 kPa, x2 = 0.0816	780.66 ± 0.45
362.66 K, 20065 kPa, x2 = 0.9216	661.85 ± 0.63
362.66 K, 21022 kPa, x2 = 0.0816	781.57 ± 0.45
362.66 K, 21055 kPa, x2 = 0.9216	676.21 ± 0.6
362.66 K, 22016 kPa, x2 = 0.9216	688.72 ± 0.59
362.66 K, 22027 kPa, x2 = 0.0816	782.43 ± 0.45
362.66 K, 23003 kPa, x2 = 0.0816	783.28 ± 0.45
362.66 K, 23071 kPa, x2 = 0.9216	701.08 ± 0.56
362.66 K, 23748 kPa, x2 = 0.9216	708.43 ± 0.57
362.66 K, 23994 kPa, x2 = 0.0816	784.14 ± 0.45
362.66 K, 25028 kPa, x2 = 0.0816	785.05 ± 0.45
362.67 K, 16036 kPa, x2 = 0.7274	743.56 ± 0.81
362.67 K, 17030 kPa, x2 = 0.7274	749.82 ± 0.52
362.67 K, 18000 kPa, x2 = 0.7274	755.36 ± 0.51
362.67 K, 19028 kPa, x2 = 0.7274	760.67 ± 0.5
362.67 K, 20033 kPa, x2 = 0.7274	765.6 ± 0.49
362.67 K, 21074 kPa, x2 = 0.7274	770.32 ± 0.49
362.67 K, 22015 kPa, x2 = 0.7274	774.34 ± 0.48
362.67 K, 23077 kPa, x2 = 0.7274	778.68 ± 0.48
362.67 K, 24033 kPa, x2 = 0.7274	782.39 ± 0.48
362.67 K, 25155 kPa, x2 = 0.7274	786.55 ± 0.54
362.76 K, 15032 kPa, x2 = 0.6054	774.3 ± 0.64
362.76 K, 16035 kPa, x2 = 0.6054	777.11 ± 0.46
362.76 K, 17040 kPa, x2 = 0.6054	779.89 ± 0.46
362.76 K, 18044 kPa, x2 = 0.6054	782.5 ± 0.46
362.76 K, 19042 kPa, x2 = 0.6054	785.04 ± 0.46
362.76 K, 20068 kPa, x2 = 0.6054	787.6 ± 0.46
362.76 K, 21079 kPa, x2 = 0.6054	790.03 ± 0.46
362.76 K, 22029 kPa, x2 = 0.6054	792.27 ± 0.46
362.76 K, 23044 kPa, x2 = 0.6054	794.59 ± 0.46
362.76 K, 24071 kPa, x2 = 0.6054	796.88 ± 0.46
362.76 K, 25065 kPa, x2 = 0.6054	799.05 ± 0.45
362.79 K, 7017 kPa, x2 = 0.1347	768.35 ± 0.44
362.79 K, 7974 kPa, x2 = 0.1347	769.41 ± 0.44
362.79 K, 9023 kPa, x2 = 0.1347	770.53 ± 0.44
362.79 K, 9999 kPa, x2 = 0.1347	771.53 ± 0.44
362.79 K, 10899 kPa, x2 = 0.1347	772.5 ± 0.44
362.79 K, 12022 kPa, x2 = 0.1347	773.68 ± 0.44
362.79 K, 13018 kPa, x2 = 0.1347	774.7 ± 0.44
362.79 K, 14016 kPa, x2 = 0.1347	775.72 ± 0.44
362.79 K, 15031 kPa, x2 = 0.1347	776.75 ± 0.44
362.79 K, 16022 kPa, x2 = 0.1347	777.7 ± 0.44
362.79 K, 17016 kPa, x2 = 0.1347	778.71 ± 0.44
362.79 K, 18017 kPa, x2 = 0.1347	779.67 ± 0.44
362.79 K, 19013 kPa, x2 = 0.1347	780.6 ± 0.44
362.79 K, 20017 kPa, x2 = 0.1347	781.57 ± 0.45
362.79 K, 21040 kPa, x2 = 0.1347	782.53 ± 0.45
362.79 K, 22011 kPa, x2 = 0.1347	783.41 ± 0.45
362.79 K, 23022 kPa, x2 = 0.1347	784.34 ± 0.45
362.79 K, 24039 kPa, x2 = 0.1347	785.29 ± 0.45
362.79 K, 25030 kPa, x2 = 0.1347	786.19 ± 0.45
